This is an account of results in patent US20220257552A1, “METHODS OF PRESCREENING AND TREATING BREAST CANCERS WITH SELECTIVE ANDROGEN RECEPTOR MODULATORS” (priority 2021, published 2022).

Assay [1] has as its system MDA-MB-231 triple negative breast cancer cells. The assay can be described thus: SRB cell viability, MDA-MB-231 cells infected with AR adenovirus. In kind it is cell-based. The procedure: The SRB assay was used to determine cell number during cytotoxocity experiments. The following protocol was used: • 1. Cells were detached with 0.25% trypsin. • 2. Experimental cultures were cultured in 96-well microtiter plates (200 μL growth medium per well; 1,000-200,000 cells per well). • 3. Cultures were fixed with 50 μL 50% TCA (4° C.). (see cell fixation protocol for details). • 4. Fixed cells were stained with 50 μL 0.4% (wt/vol) SRB in 1% acetic acid for 10 minutes. • 5. SRB was removed and the cultures were quickly* rinsed 5 times with 1% acetic acid to remove unbound dye.** • 6. Cultures were air-dried overnight until there was no visible moisture. • 7. The cellular protein-bound SRB was dissolved with 200 μL unbuffered Tris base (10 mM, pH 10.5) for 30 minutes on a rocking platform shaker. • 8. Absorbance was read at 540 nm. * quickly performing rinsing process was to prevent desorption of protein-bound SRB ** completely removed residual wash solution by sharply flicking plates over sink.
The following protocol was used for fixing cells: • a. 50 μL of 50% TCA (4° C.) was gently layered on the top of growth medium in each well to make a final TCA concentration of 10%. • b. Cultures were incubated at 4° C. for 1 hour. • c. Cultures were washed 5 times with tap water to remove TCA, growth medium, low-molecular-weight metabolites, and serum protein. • d. Plates were air-dried until there was no visible moisture.
Cells were treated in charcoal stripped FBS (FIGS. 4A, 4C, 4E, 4G, 4I, 4K, 4M and 4O) or full serum (FIGS. 4B, 4D, 4F, 4H, 4J, 4L, 4N and 4P) for 3 days, fixed and stained with […] (SRB) to measure cell viability. Anti-proliferative IC50 values were calculated in breast cancer cells and compared to transactivation values, i.e., EC50 (agonists) and IC50 (antagonists) values, generated in HEK-293 cells.

Assay [2] concerns the target T1, AR (Homo sapiens, UniProt P10275).
T1 sequence (P10275 1-920): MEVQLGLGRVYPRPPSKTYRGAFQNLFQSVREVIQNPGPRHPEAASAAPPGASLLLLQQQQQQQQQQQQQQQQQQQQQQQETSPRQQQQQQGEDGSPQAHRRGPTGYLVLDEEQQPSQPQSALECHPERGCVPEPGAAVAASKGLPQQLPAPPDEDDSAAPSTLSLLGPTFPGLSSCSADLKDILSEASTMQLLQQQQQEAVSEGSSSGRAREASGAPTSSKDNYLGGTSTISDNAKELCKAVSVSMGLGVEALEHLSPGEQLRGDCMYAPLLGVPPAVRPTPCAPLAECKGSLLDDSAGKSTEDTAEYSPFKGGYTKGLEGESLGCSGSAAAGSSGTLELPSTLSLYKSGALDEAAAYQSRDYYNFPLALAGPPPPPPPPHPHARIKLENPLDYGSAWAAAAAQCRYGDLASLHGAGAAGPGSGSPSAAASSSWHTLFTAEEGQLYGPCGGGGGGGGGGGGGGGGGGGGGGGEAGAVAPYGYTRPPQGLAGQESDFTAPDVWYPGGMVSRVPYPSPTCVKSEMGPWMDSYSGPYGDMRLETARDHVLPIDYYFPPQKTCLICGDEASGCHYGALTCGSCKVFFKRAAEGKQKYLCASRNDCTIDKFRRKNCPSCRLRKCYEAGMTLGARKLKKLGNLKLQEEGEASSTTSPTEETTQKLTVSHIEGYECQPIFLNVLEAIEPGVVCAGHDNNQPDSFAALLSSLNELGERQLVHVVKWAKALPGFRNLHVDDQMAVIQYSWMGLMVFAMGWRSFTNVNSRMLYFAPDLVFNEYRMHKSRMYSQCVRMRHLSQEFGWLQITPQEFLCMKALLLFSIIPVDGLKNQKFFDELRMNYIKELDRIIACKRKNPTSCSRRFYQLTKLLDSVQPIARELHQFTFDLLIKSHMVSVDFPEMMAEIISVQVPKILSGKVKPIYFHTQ
The note with it: cited from earlier work.

Assay [3] concerns the target T2, ER-α (Rattus norvegicus, UniProt P06211).
T2 construct: expressed in transfected cells
Put plainly: ER-α transactivation in HEK-293 cells. Format: cell-based. The procedure: Rat GR, MR, PR, ER-α and ER-β were individually cloned into a pCR3.1 vector backbone. Sequencing was performed to verify the absence of any mutations. HEK-293 cells were plated at 90,000 cells per well of a 24 well plate in Dulbecco's Minimal Essential Media supplemented with 5% charcoal-stripped FBS. […] Luciferase assays were performed 48 h after transfection. Transcriptional activation values are represented as firefly luciferase normalized to renilla luciferase.

Assay [4] relates to MDA-MB-231-AR tumors. Put plainly: Affymetrix microarray of MDA-MB-231-AR tumors. In kind it is in vivo, mice. The procedure:
RNA was extracted from MDA-MB-231-AR tumors (n=5/group) treated with vehicle or compound of Formula VIII. RNA was pooled and Affymetrix microarray was performed to determine the change in expression of gene signature.
Microarray Analysis was performed on RNA from MDA-MB-231-AR and MCF-7-AR tumors in order to identify and compare changes in gene expression in ER-negative (MDA-MB-231-AR; triple negative) an ER-positive (MCF-7-AR; triple positive) breast cancer tumors treated with a compound of Formula VIII (30 mg/kg/day p.o. for 4 weeks). Affymetrix analysis of the xenografts was done on pooled samples of the xenografts. The analysis included ˜70,000 sequences with ˜30,000 genes and variations thereof represented, as well as microRNA's. RNA was isolated and expression of genes was evaluated using microarray (Affymetrix Human Gene ST 2.0 array). Expression of genes in compound of Formula VIII-treated samples was compared with the expression in vehicle-treated samples.

Molecules are shown by their SMILES.

T2 sequence (P06211 whole entry): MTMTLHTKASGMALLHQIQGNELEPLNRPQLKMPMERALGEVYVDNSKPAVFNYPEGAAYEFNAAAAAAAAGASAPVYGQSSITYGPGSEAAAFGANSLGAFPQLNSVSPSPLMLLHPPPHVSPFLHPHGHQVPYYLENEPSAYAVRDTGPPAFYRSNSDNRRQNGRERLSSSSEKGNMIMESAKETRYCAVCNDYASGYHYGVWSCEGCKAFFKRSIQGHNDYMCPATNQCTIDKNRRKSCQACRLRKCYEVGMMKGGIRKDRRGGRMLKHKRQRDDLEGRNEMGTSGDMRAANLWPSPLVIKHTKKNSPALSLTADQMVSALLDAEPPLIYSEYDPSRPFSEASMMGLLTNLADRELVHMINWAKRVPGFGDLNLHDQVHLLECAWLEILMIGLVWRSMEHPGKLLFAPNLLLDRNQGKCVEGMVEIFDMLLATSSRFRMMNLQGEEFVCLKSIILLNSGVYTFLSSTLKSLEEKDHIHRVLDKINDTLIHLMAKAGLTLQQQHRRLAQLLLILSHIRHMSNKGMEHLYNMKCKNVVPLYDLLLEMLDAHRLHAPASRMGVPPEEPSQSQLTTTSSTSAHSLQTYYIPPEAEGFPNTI

Take `C[C@](O)(COc1ccc(C#N)cc1)C(=O)Nc1ccc(C#N)c(C(F)(F)F)c1` [Formula IX, (S)—N-(4-Cyano-3-(trifluoromethyl)phenyl)-3-(4-cyanophenoxy)-2-hydroxy-2-methylpropanamide]: in assay [1] (AR-positive cells, 10 μM bicalutamide), the “growth inhibitory effects in the presence of bicalutamide” value is given as “weakened growth inhibitory effects”. In addition, the cell growth result in assay [1] (cells with AR, 3 days, SRB) is “inhibited”. The “concentration at which it binds to and activates the AR” value in assay [2] was “less than 10 nM”.
Take `C[C@](O)(COc1ccc(C#N)cc1)C(=O)Nc1ccc(C#N)c(Cl)c1` [Formula VIII, (S)—N-(3-chloro-4-cyanophenyl)-3-(4-cyanophenoxy)-2-hydroxy-2-methylpropanamide]: in assay [3] (co-incubation), the “17β-estradiol-induced ER-α activity, antagonist mode” value is “failed to alter”. Moreover, the “ERα-mediated transactivation, agonist mode” value in assay [3] (highest tested concentration 1 μM) is “failed to activate”. Besides, in assay [4] (Table 8), the Aurora kinase expression result is “Decreased”, the “BUB1 S/T kinase expression” value is “Decreased”, the CENPE expression entry is given as “Decreased” and the EHMT2 expression result was “Decreased”. For the same compound, in assay [4] (Table 8), the ERCC1 expression entry is on record as “Decreased”, the IGFBP3 expression result is given as “Decreased”, the ITGA2 expression entry is listed as “Decreased” and the NQO1 expression result is recorded as “Increased”. In assay [4] (Table 8), the PARP1 expression entry is “Decreased”, the POLD1 expression entry is recorded as “Decreased”, the PTPRJ expression result is “Increased” and the β-Adrenoceptor2 expression result is on record as “Decreased”. For the same compound, in assay [4] (Table 10), the FKBP51 induction entry is listed as “∞”, the IRS2 induction is 4.40 Fold, the MUC1 induction came out at 9 Fold and the PTGS2 induction was 14 Fold. For the same compound, the SNAI2/SLUG induction in assay [4] (Table 10) was determined as 2.10 Fold. Besides, the “genes Up” value in assay [4] (more than 2 fold vs vehicle) was 720.
